We go through 16 compounds from patent US9682925B2, “Cyclopropaneamine compound” (TAKEDA PHARMACEUTICAL COMPANY LIMITED, priority 2011, dated 2017).

One assay concerns the target T1, human LSD1(171-852) (Homo sapiens, UniProt O60341).
T1 construct: to give hLSD1(171-852) purified product; made in house; host or cells: Escherichia coli C43(DE3) pLysS
Description: Measurement of LSD1 inhibitory activity (time-resolved fluorescence, biotin-histone H3 mono methylated K4 peptide). Format: biochemical. The following applies: read-out: LSD1 IC50 value.

The next assay has as its target T2, MAO-A (Homo sapiens, UniProt P21397).
T2 construct: purchased Sigma-Aldrich Co. LLC
T2 sequence (P21397 1-527): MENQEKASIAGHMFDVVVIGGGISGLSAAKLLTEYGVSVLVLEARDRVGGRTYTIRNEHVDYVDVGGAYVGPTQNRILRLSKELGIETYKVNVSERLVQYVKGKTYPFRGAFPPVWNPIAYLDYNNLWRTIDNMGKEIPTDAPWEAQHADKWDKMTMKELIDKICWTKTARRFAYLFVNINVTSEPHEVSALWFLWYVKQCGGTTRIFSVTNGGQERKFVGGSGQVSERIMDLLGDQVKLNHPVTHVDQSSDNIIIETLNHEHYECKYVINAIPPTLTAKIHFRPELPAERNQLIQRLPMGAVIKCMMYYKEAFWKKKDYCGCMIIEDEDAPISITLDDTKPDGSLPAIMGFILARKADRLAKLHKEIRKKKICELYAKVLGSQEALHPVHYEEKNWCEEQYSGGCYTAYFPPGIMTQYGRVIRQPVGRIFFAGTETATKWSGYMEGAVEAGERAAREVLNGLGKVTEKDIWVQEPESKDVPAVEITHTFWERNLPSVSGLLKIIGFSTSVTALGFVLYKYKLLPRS
Description: Measurement of MAO-A inhibitory activity (MAO-Glo Assay). It is filed as biochemical. The gist of the method:
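Luminescent MAO-Glo read-out: % inhibition computed from counts relative to enzyme-only control and enzyme-free blank. Compound and 400 ng MAO-A in HEPES pH 7.5 with 5% glycerol stood 10 min at room temperature before MAO substrate (160 μM stock) started a 60 min reaction.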

A further assay deals with T3, MAO-B (Homo sapiens, UniProt P27338).
T3 construct: purchased Sigma-Aldrich Co. LLC
T3 sequence (P27338 1-520): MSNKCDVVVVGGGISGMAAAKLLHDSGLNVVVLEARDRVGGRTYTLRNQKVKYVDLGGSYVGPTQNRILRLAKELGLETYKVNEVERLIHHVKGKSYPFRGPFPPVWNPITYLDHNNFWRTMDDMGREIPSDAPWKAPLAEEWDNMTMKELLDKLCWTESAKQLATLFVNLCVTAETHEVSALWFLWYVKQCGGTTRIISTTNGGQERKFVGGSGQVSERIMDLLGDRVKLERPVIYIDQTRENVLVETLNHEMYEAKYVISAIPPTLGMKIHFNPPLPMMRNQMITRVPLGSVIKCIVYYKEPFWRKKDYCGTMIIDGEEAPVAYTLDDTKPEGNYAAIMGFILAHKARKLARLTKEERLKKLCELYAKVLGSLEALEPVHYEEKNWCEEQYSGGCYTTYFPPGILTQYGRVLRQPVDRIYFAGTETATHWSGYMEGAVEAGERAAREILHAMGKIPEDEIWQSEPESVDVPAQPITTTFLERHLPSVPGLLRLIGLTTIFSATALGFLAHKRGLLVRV
Put plainly: Measurement of MAO-B inhibitory activity (MAO-Glo Assay). It is filed as biochemical. Put shortly:
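Percent inhibition was calculated from luciferin-based luminescence, corrected with a blank lacking enzyme and a control lacking compound. The reaction ran 60 min at room temperature after adding MAO substrate (16 µM as added). This followed a 10 min compound–enzyme preincubation in HEPES pH 7.5 buffer.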

Assay [1] deals with HEL92.1.7 acute myeloid leukemia cells. Description: Tumor growth suppressive effect test using HEL92.1.7 acute myeloid leukemia cell. It is filed as in vivo, SCID mice. The following applies: change rate in tumor volume, vehicle-treated group = 100%, 30 mg/kg orally once per day. On the procedure: Tumor Growth Suppressive Effect Test Using HEL92.1.7 Acute Myeloid Leukemia Cell
6-Week-old SCID mice were subcutaneously transplanted with 5×10^6 cells/100 μl of HEL92.1.7 acute myeloid leukemia cells, and the mice were grouped according to the body weight and tumor volume after 15 to 17 days. Vehicle (0.5% methylcellulose) or compound A, compound B or compound C was administered orally to mice (5 mice per group). The administration was once per day and performed continuously during the dosing period. Setting the change in tumor volume of the vehicle-treated group as 100%, the change rate in tumor volume of the compound-treated group (T/C %) was calculated. The tumor volume was determined by measuring the long diameter m and short diameter of the tumor with a vernier caliper, and calculating by the following calculation formula: (long diameter)×(short diameter)×(short diameter)/2.

Each structure is given as a SMILES string. pIC50: −log10 of the molar value. Counter-ions that a name gives are not always drawn. Some results are limits rather than exact numbers.

With `CN1CCC(N[C@@H]2C[C@H]2c2ccc(NC(=O)c3cccc(C(F)(F)F)c3)cc2)CC1` (relative stereo) [Example 76, N-(4-{trans-2-[(1-methylpiperidin-4-yl)amino]cyclopropyl}phenyl)-3-(trifluoromethyl)benzamide dihydrochloride], the pIC50 at human LSD1(171-852) was above 7.00; against MAO-A, below 5.00; against MAO-B, below 5.00. In assay [1] (dosing period 7 days), the “T/C (%)” value is listed as −8.08%.

Turning to `O=C(Nc1ccc([C@@H]2C[C@H]2NCC2CC2)cc1)c1cn[nH]c1` (relative stereo) [Example 79, N-(4-{trans-2-[(cyclopropylmethyl)amino]cyclopropyl}phenyl)-1H-pyrazole-4-carboxamide hydrochloride], the pIC50 is above 7.00 on human LSD1(171-852), below 5.00 on MAO-A and below 5.00 on MAO-B. For the same compound, the “T/C (%)” value in assay [1] (dosing period 14 days) is given as 46.42%.

As for `Cc1cc(C(=O)Nc2ccc([C@@H]3C[C@H]3NCC3CC3)cc2)n(C)n1` (relative stereo) [Example 156, N-(4-{trans-2-[(cyclopropylmethyl)amino]cyclopropyl}phenyl)-1,3-dimethyl-1H-pyrazole-5-carboxamide dihydrochloride], the negative-log IC50 (pIC50) on human LSD1(171-852) is above 7.00; against MAO-A it was below 5.00; against MAO-B, below 5.00.

On to `Cc1cc(C(=O)Nc2ccc([C@@H]3C[C@H]3NCC3CC3)cc2)nn1C` (relative stereo) [Example 157, N-(4-{trans-2-[(cyclopropylmethyl)amino]cyclopropyl}phenyl)-1,5-dimethyl-1H-pyrazole-3-carboxamide dihydrochloride], for which the pIC50 on human LSD1(171-852) is 7.00; on MAO-A, below 5.00; against MAO-B, below 5.00.

For `Cn1cc(C(=O)Nc2ccc([C@@H]3C[C@H]3NCC3CC3)cc2)c(C(F)(F)F)n1` (relative stereo) [Example 158, N-(4-{trans-2-[(cyclopropylmethyl)amino]cyclopropyl}phenyl)-1-methyl-3-(trifluoromethyl)-1H-pyrazole-4-carboxamide hydrochloride], the values for the pIC50 at human LSD1(171-852), on MAO-A and against MAO-B were above 7.00, below 5.00 and below 5.00, respectively.

For `Cn1ncc(C(=O)Nc2ccc([C@@H]3C[C@H]3NCC3CC3)cc2)c1C(F)(F)F` (relative stereo) [Example 159, N-(4-{trans-2-[(cyclopropylmethyl)amino]cyclopropyl}phenyl)-1-methyl-5-(trifluoromethyl)-1H-pyrazole-4-carboxamide hydrochloride], the negative logarithm of the IC50 (pIC50) at human LSD1(171-852) was above 7.00; against MAO-A, below 5.00; against MAO-B it was below 5.00.

In the case of `O=C(Nc1ccc([C@@H]2C[C@H]2NCc2cn3ccsc3n2)cc1)c1cccc(C(F)(F)F)c1` (relative stereo) [Example 160, N-(4-{trans-2-[(imidazo[2,1-b][1,3]thiazol-6-ylmethyl)amino]cyclopropyl}phenyl)-3-(trifluoromethyl)benzamide dihydrochloride], the pIC50 is above 7.00 on human LSD1(171-852), 5.29 against MAO-A and below 5.00 against MAO-B.

`O=C(Nc1ccc([C@@H]2C[C@H]2NCc2cc3cccnc3s2)cc1)c1cccc(C(F)(F)F)c1` (relative stereo) [Example 161, N-(4-{trans-2-[(thieno[2,3-b]pyridin-2-ylmethyl)amino]cyclopropyl}phenyl)-3-(trifluoromethyl)benzamide hydrochloride]: the negative-log IC50 (pIC50) was above 7.00 on human LSD1(171-852), 5.39 on MAO-A and below 5.00 at MAO-B.

Consider `O=C(Nc1ccc([C@@H]2C[C@H]2NCc2ccc3cccnc3n2)cc1)c1cccc(C(F)(F)F)c1` (relative stereo) [Example 162, N-(4-{trans-2-[(1,8-naphthyridin-2-ylmethyl)amino]cyclopropyl}phenyl)-3-(trifluoromethyl)benzamide hydrochloride], for which the pIC50 at human LSD1(171-852) is above 7.00; against MAO-A, 5.68; on MAO-B, below 5.00.

On to `CC(C)(C)n1cc(C(=O)Nc2ccc([C@@H]3C[C@H]3NCC3CC3)cc2)cn1` (relative stereo) [Example 164, 1-tert-butyl-N-(4-{trans-2-[(cyclopropylmethyl)amino]cyclopropyl}phenyl)-1H-pyrazole-4-carboxamide hydrochloride], for which the values for the pIC50 on human LSD1(171-852), on MAO-A and on MAO-B were 6.70, below 5.00 and below 5.00, respectively.

Regarding `O=C(Nc1ccc([C@@H]2C[C@H]2NCC2CC2)cc1)c1ccc(-c2ccccc2)cc1` (single isomer, unassigned) [Example 59, N-(4-{trans-2-[(cyclopropylmethyl)amino]cyclopropyl}phenyl)biphenyl-4-carboxamide hydrochloride], the pIC50 is 5.15 at MAO-A and below 5.00 on MAO-B. Further, the “T/C (%)” value in assay [1] (dosing period 14 days) is on record as 12.54%.

Take `CN1CCC(N[C@H]2C[C@@H]2c2ccc(NC(=O)c3cccc(C(F)(F)F)c3)cc2)CC1` (single isomer, unassigned) [Example 152, N-(4-{(1R,2S) or (1S,2R)-2-[(1-methylpiperidin-4-yl)amino]cyclopropyl}phenyl)-3-(trifluoromethyl)benzamide dihydrochloride]: the negative-log IC50 (pIC50) on human LSD1(171-852) is above 7.00; at MAO-A, below 5.00; against MAO-B, below 5.00.

`CN1CCC(N[C@@H]2C[C@H]2c2ccc(NC(=O)c3cccc(C(F)(F)F)c3)cc2)CC1` (single isomer, unassigned) [Example 153, N-(4-{(1S,2R) or (1R,2S)-2-[(1-methylpiperidin-4-yl)amino]cyclopropyl}phenyl)-3-(trifluoromethyl)benzamide dihydrochloride]: the figures for the pIC50 on human LSD1(171-852), against MAO-A and against MAO-B were above 7.00, below 5.00 and below 5.00, respectively.

For `O=C(N[C@@H](Cc1ccccc1)C(=O)Nc1ccc(C2CC2NCc2ccccc2)cc1)OCc1ccccc1` (stereo in doubt) [Example 57, N-{4-[trans-2-(benzylamino)cyclopropyl]phenyl}-Nα-[(benzyloxy)carbonyl]-L-phenylalaninamide hydrochloride], the pIC50 was 6.32 at human LSD1(171-852), below 5.00 at MAO-A and below 5.00 against MAO-B.

`O=C(N[C@H](Cc1ccccc1)C(=O)Nc1ccc(C2CC2NCc2ccccc2)cc1)OCc1ccccc1` (stereo in doubt) [Example 58, N-{4-[trans-2-(benzylamino)cyclopropyl]phenyl}-Nα-[(benzyloxy)carbonyl]-D-phenylalaninamide hydrochloride]: the pIC50 was 6.39 at human LSD1(171-852), below 5.00 against MAO-A and below 5.00 against MAO-B.

For the compound `Cc1cc(C2CC2NCC2CC2)ccc1NC(=O)c1ccccc1` (stereo not drawn) [Example 81, N-(4-{trans-2-[(cyclopropylmethyl)amino]cyclopropyl}-2-methylphenyl)benzamide hydrochloride], the pIC50 on human LSD1(171-852) is above 7.00; on MAO-A, below 5.00; against MAO-B, below 5.00.

A word on the pIC50: it is the IC50 on a negative log10 scale, so that one unit is a factor of ten.
